The values below come from patent US9375519B2, “Bioerodable poly(etheresteramides) and medical article uses” (SurModics, Inc., priority 2012, dated 2016).

This data set in a line: Analysis of monomer degradation in deuterated water by NMR (free phenylalanine). It is filed as physicochemical. As to conditions: deuterated water at pH 4, 7 or 11, room temperature. On the procedure: Monomers of formula II were evaluated for degradation in water at basic, neutral, and acidic pH conditions.
NMR indicated an increasing presence of free phenylalanine, a degradation byproduct, in solution over time (FIG. 1). […] This is consistent with hydrolysis of the ester bond in the Phe-TEG monomer.
Monomers were placed in deuterated water (adjusted to pH 4, 7, or 11 with DCl or NaOD) in an NMR tube and incubated at room temperature. NMR was used to detect the presence of free phenylalanine, a degradation byproduct, in the aqueous phase (see FIG. 1).

Molecules are shown by their SMILES. “Also recorded” adds a separate entry of the source. Counter-ions that a name gives are not always drawn.

Take `NC(Cc1ccccc1)C(=O)OCCOCCOCCOCCOC(=O)C(N)Cc1ccccc1` (stereo not shown) [Phe-TEG, di-p-toluenesulfonic salt of bis-(phenylalanine)-tetraethylene glycol diester]: the “degradation of monomer in water (free phenylalanine in solution over time by NMR)” value is recorded as “showed evidence of degradation; also recorded: larger under basic conditions than neutral or acidic”.
